{"source": "paper PMC11636681", "about": "“Pharmacokinetics and pharmacodynamics of antibacterial peptide NZX in Staphylococcus aureus mastitis mouse model” (Applied Microbiology and Biotechnology, 2024)", "key": {"S. aureus ATCC 43300": {"test_system": "S. aureus ATCC 43300", "settings": "1 × 10^5 CFU/mL, 16–18 h, 37 °C, value marked a, already published, ref Zheng et al. [2022]; cited from earlier work", "description": "Table 1 The MICs, MBCs and MPCs of NZX and antibiotics against S. aureus strains (μM) | column: S. aureus ATCC 43300 / MIC"}, "S. aureus E48": {"test_system": "S. aureus E48", "settings": "1 × 10^5 CFU/mL, 16–18 h, 37 °C, value marked a, already published, ref Zheng et al. [2022]; cited from earlier work", "description": "Table 1 The MICs, MBCs and MPCs of NZX and antibiotics against S. aureus strains (μM) | column: S. aureus E48 / MIC"}, "three S. aureus strains": {"test_system": "three S. aureus strains", "assay": "Mouse mastitis model, histopathological analysis and scoring of mammary tissues", "assay_type": "in vivo", "settings": "mice infected with the three S. aureus strains, 100 μg/gland", "description": "The 7 to 8-weeks old ICR mice (80 females, 40 males) were housed in independent ventilated cages, and feed with autoclaved laboratory food and water. Female mice in heat were put into the cage of males (females:males, 2:1) overnight and checked for vaginal plugs at the following morning to induce pregnancy. ICR-lactating mice were used at 6 to 8 days after the birth of the offspring. The mouse mastitis model was established as previously described (Li et al. [2017]). Mice were randomly divided into nine groups: NC group (uninfected group), PC group (infected but without treatment), NZX groups (25, 50, 100, 200 and 400 μg/gland, respectively), lincomycin group (100 μg/gland), and ceftiofur group (100 μg/gland). Each experimental group has six independent experiments with three mice. Specially, the pups were removed 1 h before the intramammary injection of both L4 (on the left) and R4 (on the right) abdominal mammal glands. […]\nAfter mouse sacrifice, one part of mammary tissue was taken for bacterial count, and the other part was used for the histopathological analysis. […] The bacterial number on each plate was counted and the results were expressed as Log10 CFU per gram of mammary tissues. […]"}, "[1]": {"assay": "Pharmacokinetics in mouse mammary gland after intramammary administration", "assay_type": "in vivo", "description": "A 0.5 g of mammary tissue or milk were weighed, homogenized, and transferred to a 10 mL polypropylene centrifuge tube, respectively, extracted sequentially by adding into a 3 mL of 0.1 M of McFarland buffer and 1% trichloroacetic acid (TCA), and cleaned by a C18 solid-phase extraction (SPE) cartridge (Oasis MAX 3 cc 60 mg and Oasis HLB 3 cc 60 mg, respectively, Waters, USA). Afterwards, a 2 mL of 45% acetonitrile with 2% formic acid and 3 mL of 45% acetonitrile were used to elute the columns, respectively, the collected eluents were freeze-dried and dissolved in 200 µL of deionized water and filtered by a […] sterile filter membrane before the analysis of high-performance liquid chromatography-ultraviolet (HPLC–UV). The HPLC–UV with a C18 reverse-phase column (ZORBAX Eclipse Plus C18 4.6 mm × 250 mm, 5 µm) conditions for detecting NZX were as follows: the mobile phase consisted of A: 0.1% trifluoroacetate […] in acetonitrile and B: 0.1%TFA in water; the injection volume was 40 μL; the wavelength of UV detector was 280 nm; flow rate was 1.0 mL/min; the column temperature was 35 °C, and the elution was conducted with a linear gradient of 20–45% mobile phase A for 16 min. The linear relationship, limits of detection (LOD), limits of quantitation (LOQ), accuracy and precision were determined by adding the known concentrations of NZX into the extracted blank matrix of mammary gland. Each concentration was conducted three times.\nA pharmacokinetic assessment of a single dose of NZX at 100 μg/gland was carried out using 36 individual healthy lactating mice following intramammary administration (Wang et al. [2021]). Mammary tissues were harvested at 0.083, 0.5, 1, 2, 3, 4, 6, 9, 12, 16, 20 and 24 h with three mice (six mammary in total) at each time point. The collected samples were then placed into 2 mL eppendorf tubes and stored at − 80 °C before the content determination of NZX in mammary gland by HPLC–UV. Briefly, a portion of the mammary gland tissues (0.5 g) was weighed in 2 mL eppendorf tubes, homogenized for 20 min (50 HZ and 4 °C) in 0.5 mL of PBS solution, and pretreated and purified by a MAX cartridge as described above. The pharmacokinetic parameters of NZX in mammary gland tissues were calculated by non-compartmental model using WinNonlin Phoenix version 8.1 (Pharsight Co., Mountain View, CA, USA)."}, "[2]": {"settings": "mouse mammary tissue, single 100 μg/gland intramammary, healthy lactating mice, HPLC–UV, non-compartmental model"}}, "note": "Marks after values point to notes of the source that are not given here. Positions of bridges follow the written chain, without caps; N, C: chain ends. Residues, ends and D or L forms follow the SMILES beside them."}
{"smiles": "CC[C@H](C)[C@@H]1NC(=O)[C@H](CO)NC(=O)[C@H](CCCCN)NC(=O)[C@@H]2CSSC[C@@H](C(=O)N[C@@H](Cc3ccc(O)cc3)C(=O)O)NC(=O)[C@H](CCCCN)NC(=O)[C@@H]3CSSC[C@H](NC(=O)[C@H](CCC(N)=O)NC(=O)[C@H]([C@@H](C)CC)NC(=O)[C@H](CC(=O)O)NC(=O)[C@H](CC(=O)O)NC(=O)[C@H](CCC(=O)O)NC(=O)[C@H](CO)NC(=O)[C@H](Cc4c[nH]c5ccccc45)NC(=O)[C@@H]4CCCN4C(=O)CNC(=O)[C@H](CC(N)=O)NC(=O)[C@@H](NC(=O)CNC(=O)[C@H](Cc4ccccc4)NC(=O)CN)CSSC[C@H](NC(=O)[C@H](Cc4ccc(O)cc4)NC(=O)CNC(=O)CNC(=O)[C@H](CCCCN)NC(=O)[C@H](Cc4ccc(O)cc4)NC(=O)CNC(=O)[C@H](CCCCN)NC1=O)C(=O)N[C@@H](C)C(=O)N[C@@H](CCCNC(=N)N)C(=O)NCC(=O)NCC(=O)N[C@@H](Cc1ccccc1)C(=O)N[C@@H](C(C)C)C(=O)N3)C(=O)N[C@@H](Cc1c[nH]cn1)C(=O)N[C@@H](CC(N)=O)C(=O)N[C@@H](Cc1c[nH]cn1)C(=O)N2", "note": "[NZX] (H-GFGCNGPWSEDDIQCHNHCKSIKGYKGGYCARGGFVCKCY-OH; disulfide 4-30, 15-37, 19-39; N-terminus and C-terminus assumed)", "values": [{"measurement": "MIC", "setting": "S. aureus ATCC 43300", "value": "0.23^a μM"}, {"measurement": "MIC", "setting": "S. aureus E48", "value": "0.23^a μM"}, {"measurement": "inflammatory symptoms of mammary tissue (H&E histology)", "setting": "three S. aureus strains; 24 h after treatment", "value": "obviously improved"}, {"measurement": "pathological scores of mammary tissues", "setting": "three S. aureus strains; compared with the PC group", "value": "significantly decreased"}, {"measurement": "AUC, area under the concentration time curve from time 0 to 24 h", "setting": "[1]; [2]", "value": 391, "unit": "µg·h/g"}, {"measurement": "Cmax, peak concentration", "setting": "[1]; [2]", "value": 32.49, "unit": "µg/g"}, {"measurement": "Tmax, peak time", "setting": "[1]; [2]", "value": 0.5, "unit": "h"}, {"measurement": "T1/2, terminal elimination half-life", "setting": "[1]; mouse mammary tissue, single 100 μg/gland intramammary, healthy lactating mice, HPLC–UV, non-compartmental model, three mice (six glands) per time point", "value": 35.11, "unit": "h"}, {"measurement": "tissue distribution after administration by milk duct", "setting": "[1]; mouse, no detection in serum and organs (data not shown)", "value": "only distributed into mammary gland tissues"}]}
